Results reported in patent publication US5405873A, “Substituted acetamide derivatives” (Banyu Pharmaceutical Co., Ltd., priority 1992, dated 1995).

How the values were obtained:
ACAT = ACAT inhibitory activity (rabbit liver microsomal fraction); type: biochemical, Japanese-White Rabbit; conditions: [1-14C]oleyl-CoA and exogenous cholesterol
Experimental: Enzyme specimen ACAT is prepared from liver microsomal fraction of Japanese-White Rabbit in accordance with the method described in Smith et al., Clinica Chimica Acta, 158, 271 (1986). The ACAT activity is determined by measuring the amount of labeled cholesterol esters from [1-^14 C]oleyl-CoA and exogenous cholesterol also according to the method of Smith et al., ibid. Thus, inhibition rates (%) of the compounds of the present invention against ACAT at a concentration of 0.3 μM are shown in the following table, together with the results of Melinamide (N-(α-methylbenzyl)linoleamide) and YM-17E (1,3-bis[[1-cycloheptyl-3-(p-dimethylaminophenyl)ureido]methyl]-benzene dihydrochloride), as reference compounds, measured at the same time.

[1] = system: absorption of cholesterol; assay: Cholesterol absorption inhibitory activity in rat; type: in vivo, Sprague-Dawley rats; conditions: 100 mg/kg oral; [3H] cholesterol emulsion; serum radioactivity 4 hours after administration
Experimental: Cholesterol absorption inhibitory activity is determined by the method described in Fukushima et al., Journal of Atherosclerosis Research, 10, 403 (1969).
That is, Sprague-Dawley rats of 7 weeks age weighing 200 to 250 g are divided into groups at random and fed for 7 days with free access to diet. Then, the compound of the present invention and [^3 H] cholesterol emulsion (suspension of 6.96 mg of cholesterol and 177 mg of triolein in 0.8 ml of 6.8% skimmed milk aqueous solution) prepared into a dose indicated are forcedly given orally (Experiment Group).
As a control group, the solvent used to suspend the compound of the present invention instead of the compound of the present invention in Experiment Group and [^3 H] cholesterol emulsion are forcedly administered orally.
Four hours after administration, blood is collected from the tail. The cholesterol absorption inhibitory activity of the compound is determined in terms of the radiation activity of [^3 H) observed in serum by comparing between the control group and the experiment group. Inhibition rate (%) at 100 mg/kg is calculated and the results are shown in the following table together with the result of YM-17E used as a reference compound.

| SMILES | Inhibition Rate at 0.3 μM (ACAT) [%] | Inhibition Rate at 100 mg/kg [1] [%] |
| --- | --- | --- |
| CCCCCN(C/C=C/C#CC(C)(C)C)CCNC(=O)CSc1cccc2ccccc12 [Example 1, (E)-N-[2-[N'-Pentyl-(6,6-dimethyl-2-hepten-4-ynyl)amino]ethyl]-(1-naphthylthio)acetamide] | 70 |  |
| CCCCCN(CC#CC#CC(C)(C)C)CCNC(=O)CSc1cccc2ccccc12 [Example 2, N-[2-[N'-Pentyl-(6,6-dimethyl-2,4-heptadiynyl)amino]ethyl]-(1-naphthylthio)acetamide] | 76 |  |
| CCCCCN(CCCC#CC(C)(C)C)CCNC(=O)CSc1cccc2ccccc12 [Example 3, N-[2-[N'-Pentyl-(6,6-dimethyl-4-heptynyl)amino]ethyl]-(1-naphthylthio)acetamide] | 68 |  |
| CCCCCN(CC#CC#CC(C)(C)C)CCNC(=O)CSc1ccc2ccccc2c1 [Example 4, N-[2-[N'-Pentyl-(6,6-dimethyl-2,4-heptadiynyl)amino]ethyl]-(2-napthylthio)acetamide] | 78 |  |
| CCCCCN(C/C=C/C#CC(C)(C)C)CCNC(=O)CSc1ccc2ccccc2c1 [Example 6, (E)-N-[2-[N'-Pentyl-(6,6-dimethyl-2-hepten-4-ynyl)amino]ethyl]-(2-naphthylthio)acetamide] |  | 73 |
| CCCCCN(CC#CC#CC(C)(C)C)CCNC(=O)CSc1ccc(C)c(C)c1 [Example 10, N-[2-[N'-Pentyl-(6,6-dimethyl-2,4-heptadiynyl)amino]ethyl]-(3,4-dimethylphenylthio)acetamide] | 84 |  |
| CCCCCN(CC#CC#CC(C)(C)C)CCNC(=O)CSc1c(C)cccc1C [Example 11, N-[2-[N'-Pentyl-(6,6-dimethyl-2,4-heptadiynyl)amino]ethyl]-(2,6-dimethylphenylthio)acetamide] | 87 |  |
| CCCCCN(CC#CC#CC(C)(C)C)CCNC(=O)CSc1ccc2oc3ccccc3c2c1 [Example 24, N-[2-[N'-Pentyl-(6,6-dimethyl-2,4-heptadiynyl)amino]ethyl]-(2-dibenzofuranylthio)acetamide] | 64 |  |
| CCCCCN(CC#CC#CC(C)(C)C)CCNC(=O)CSc1c2ccccc2cc2ccccc12 [Example 26, N-[2-[N'-Pentyl-(6,6-dimethyl-2,4-heptadiynyl)amino]ethyl]-(9-anthrylthio)acetamide] | 66 |  |
| CCCCCN(CC#CC#CC(C)(C)C)CCNC(=O)C[S+]([O-])c1cccc2ccccc12 (stereo not shown) [Example 29, N-[2-[N'-Pentyl-(6,6-dimethyl-2,4-heptadiynyl)amino]ethyl]-(1-naphthylsulfinyl)acetamide] | 70 |  |
| CCCCCN(CC#CC#CC(C)(C)C)CCNC(=O)CS(=O)(=O)c1cccc2ccccc12 [Example 30, N-[2-[N'-Pentyl-(6,6-dimethyl-2,4-heptadiynyl)amino]ethyl]-(1-naphthylsulfonyl)acetamide] | 75 |  |
| CCCCN(CC#CC#CC(C)(C)C)CCNC(=O)CSc1cccc2ccccc12 [Example 34, N-[2-[N'-Butyl-(6,6-dimethyl-2,4-heptadiynyl)amino]ethyl]-(1-naphthylthio)acetamide] | 61 |  |
| CC(C)CCCN(CC#CC#CC(C)(C)C)CCNC(=O)CSc1cccc2ccccc12 [Example 36, N-[2-[N'-(4-Methylpentyl)-(6,6-dimethyl-2,4-heptadiynyl)amino]ethyl]-(1-naphthylthio)acetamide] | 75 |  |
| CCCCC/C=C\C/C=C\CCCCCCCC(=O)NC(C)c1ccccc1 (stereo not drawn) [Melinamide, N-(α-methylbenzyl)linoleamide, reference compound] | 15 |  |
| CN(C)c1ccc(NC(=O)N(Cc2cccc(CN(C(=O)Nc3ccc(N(C)C)cc3)C3CCCCCC3)c2)C2CCCCCC2)cc1.Cl.Cl [YM-17E, 1,3-bis[[1-cycloheptyl-3-(p-dimethylaminophenyl)ureido]methyl]-benzene dihydrochloride, reference compound] | 50 | 63 |
